Measured values reported in publication PMC5461952 (Chemical research in toxicology, 2012).
Entries after “also recorded” stand apart in the source; their conditions may differ. Like-named read-outs stand apart in the source and are kept apart here.

Legend:
[1] = molecular target: T1, human P450 1A1 (Homo sapiens, UniProt P04798); assay: EROD; type: biochemical; conditions: for IC50 P450 1A1: human P450 1A1 supersomes, EROD, 5 μM substrate, 37 °C, Dixon plot
T1 sequence (P04798 1-512): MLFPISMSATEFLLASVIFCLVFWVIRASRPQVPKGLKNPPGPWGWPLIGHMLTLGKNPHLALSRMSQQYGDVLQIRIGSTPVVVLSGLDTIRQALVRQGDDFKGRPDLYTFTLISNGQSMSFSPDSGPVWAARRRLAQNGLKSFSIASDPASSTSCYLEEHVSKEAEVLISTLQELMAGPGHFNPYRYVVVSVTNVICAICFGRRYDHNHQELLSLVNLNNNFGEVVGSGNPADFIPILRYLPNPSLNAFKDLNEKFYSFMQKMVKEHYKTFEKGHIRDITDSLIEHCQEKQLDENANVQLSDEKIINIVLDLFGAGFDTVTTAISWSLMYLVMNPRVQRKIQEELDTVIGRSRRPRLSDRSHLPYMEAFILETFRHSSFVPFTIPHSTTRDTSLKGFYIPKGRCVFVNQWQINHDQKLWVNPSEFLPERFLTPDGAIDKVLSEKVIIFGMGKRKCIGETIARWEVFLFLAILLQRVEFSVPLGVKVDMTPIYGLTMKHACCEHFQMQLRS

[2] = molecular target: T2, human P450 1A2 (Homo sapiens, UniProt P05177); assay: Mechanism-based; type: biochemical
T2 sequence (P05177 1-516): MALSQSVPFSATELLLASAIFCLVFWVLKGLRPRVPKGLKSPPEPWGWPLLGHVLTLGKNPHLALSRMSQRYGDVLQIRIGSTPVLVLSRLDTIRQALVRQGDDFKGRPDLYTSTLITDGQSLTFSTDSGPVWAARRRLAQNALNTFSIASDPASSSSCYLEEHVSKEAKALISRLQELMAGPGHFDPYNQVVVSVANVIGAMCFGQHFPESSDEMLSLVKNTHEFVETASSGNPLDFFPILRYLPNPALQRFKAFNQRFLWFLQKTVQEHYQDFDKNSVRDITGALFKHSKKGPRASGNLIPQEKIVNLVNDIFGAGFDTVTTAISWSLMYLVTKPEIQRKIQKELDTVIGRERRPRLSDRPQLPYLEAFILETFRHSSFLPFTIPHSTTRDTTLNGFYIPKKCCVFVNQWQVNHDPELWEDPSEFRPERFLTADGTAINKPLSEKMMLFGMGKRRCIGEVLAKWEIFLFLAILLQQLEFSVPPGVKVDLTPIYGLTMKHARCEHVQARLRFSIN

[3] = molecular target: T3, human P450 2A6 (Homo sapiens, UniProt P11509); assay: Coumarin 7-hydroxylation inhibition assay in supersomes
T3 sequence (P11509 1-494): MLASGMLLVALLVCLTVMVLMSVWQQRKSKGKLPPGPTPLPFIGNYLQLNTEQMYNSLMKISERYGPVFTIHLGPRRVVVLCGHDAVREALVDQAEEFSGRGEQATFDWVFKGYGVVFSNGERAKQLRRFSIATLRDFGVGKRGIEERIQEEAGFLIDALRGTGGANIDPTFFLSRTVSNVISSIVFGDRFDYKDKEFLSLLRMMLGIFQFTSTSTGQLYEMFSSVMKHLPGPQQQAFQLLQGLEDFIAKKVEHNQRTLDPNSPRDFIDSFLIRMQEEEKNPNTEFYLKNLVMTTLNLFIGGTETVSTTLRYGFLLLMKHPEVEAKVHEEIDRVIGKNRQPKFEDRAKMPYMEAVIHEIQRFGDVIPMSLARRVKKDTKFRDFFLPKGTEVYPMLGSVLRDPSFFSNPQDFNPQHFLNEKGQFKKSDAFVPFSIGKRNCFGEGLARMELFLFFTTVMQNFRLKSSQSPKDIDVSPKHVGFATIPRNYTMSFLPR

[4] = molecular target: T4, rat P4502B1 (Rattus norvegicus, UniProt P00176); assay: PROD
T4 sequence (P00176 1-491): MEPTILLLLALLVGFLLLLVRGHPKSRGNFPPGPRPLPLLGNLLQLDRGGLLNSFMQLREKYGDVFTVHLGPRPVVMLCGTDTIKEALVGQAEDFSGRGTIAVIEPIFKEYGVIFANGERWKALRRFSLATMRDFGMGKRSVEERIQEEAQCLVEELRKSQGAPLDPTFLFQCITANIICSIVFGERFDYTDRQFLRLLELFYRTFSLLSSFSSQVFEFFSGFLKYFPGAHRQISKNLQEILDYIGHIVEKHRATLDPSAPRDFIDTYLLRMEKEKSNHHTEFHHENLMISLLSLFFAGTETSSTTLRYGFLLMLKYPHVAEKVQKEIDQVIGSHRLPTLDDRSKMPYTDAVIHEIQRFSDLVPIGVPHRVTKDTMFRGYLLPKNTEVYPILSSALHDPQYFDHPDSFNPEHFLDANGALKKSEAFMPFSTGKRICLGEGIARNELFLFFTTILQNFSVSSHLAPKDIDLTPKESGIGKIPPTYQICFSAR

[5] = molecular target: T1, human P450 1A1; assay: Mechanism-based; type: biochemical
[6] = molecular target: T5, CYP1A1 (Homo sapiens, UniProt P04798); assay: Mechanism-based; type: biochemical; conditions: human, human P450 1A1 supersomes, pH 7.6, probe 7-ethoxyresorufin (EROD)
T5 sequence (P04798 1-512): T1 sequence (P04798 1-512)

[7] = molecular target: T2, human P450 1A2; assay: MROD; type: biochemical
[8] = 5 min preincubation in presence and absence of NADPH

IC50 P450 1A1 [1] | Ki [2] [µM] | kinact ([2]; read-out: Kinactivation, P450 1A2) [s⁻¹] | IC50 [3] [µM] | IC50 [4] [µM] | kinact ([5]; read-out: Kinactivation (rate constant for maximal inactivation at saturation), P450 1A1) [s⁻¹] | KI (inactivation) at 6 min [6] [µM] | IC50 [1] [µM] | IC50 [7] [µM] | Mechanism-based inhibition of P450 1A2 (result in words) [2] | Mechanism-based inhibition of P450 1A1 (result in words) [5] | IC50 P450 1A2 ([7]; human P450 1A2 supersomes, MROD, 5 μM substrate, 37 °C, Dixon plot) | Compound | Mechanism-based inhibition of P450 1A2 (result in words) [2, 8] | Mechanism-based inhibition of P450 1A1 (result in words) [5, 8]
submicromolar potency | 0.5 | 0.00133 | > 50 | > 50 | 0.0262 | 5.38 | – | – | – | – | – | Cc1cc(Cl)c2c(c1N)C(=O)c1ccccc1C2=O [Compound 1, 1-Amino-4-chloro-2-methylanthracene-9,10-dione] | act as a mechanism-based inhibitor; also recorded: demonstrated mechanism-based inhibition | act as a mechanism-based inhibitor; also recorded: demonstrated mechanism-based inhibition
– | – | – | > 50 | 2.15 | – | – | 2.09 | 0.53 | – | – | – | Nc1ccc(O)c2c1C(=O)c1ccccc1C2=O [Compound 2, 1-amino-4-hydroxyanthracene-9,10-dione] | did not show mechanism-based inhibition; also recorded: does not demonstrate mechanism-based inhibition | did not show mechanism-based inhibition; also recorded: does not demonstrate mechanism-based inhibition
– | – | – | > 50 | 14.9 | – | – | – | – | did not cause mechanism-based inhibition | did not cause mechanism-based inhibition | – | Cc1cc(O)c2c(c1)C(=O)c1cc(O)cc(O)c1C2=O [emodin, Emodin, reference compound] | – | –
did not inhibit | – | – | > 50 | 5.66 | – | – | > 50 | > 50 | – | – | did not inhibit | CC(C)(C)C1=CC(=O)c2c(ccc(C(C)(C)C)c2O)C1=O [Compound 8, 2,6-Di-tert-butyl-5-hydroxynaphthalene-1,4-dione] | – | –
